The values that follow come from article PMC10107299, “Neutralizing the Impact of the Virulence Factor LecA from Pseudomonas aeruginosa on Human Cells with New Glycomimetic Inhibitors” (Angewandte Chemie (International Ed. in English), 2023).

In general, kinetic solubility refers to the concentration staying in solution when a stock, usually in DMSO, is diluted into the medium. The term IC50 denotes the concentration at which inhibition is half-maximal. A low value points to greater potency. What is called Kd is a measure of binding affinity in units of concentration. By koff is commonly meant the rate constant with which the complex falls apart. High values mean fast dissociation, low ones slow dissociation.

A short description of data set [1]: Kinetic solubility in TBS/Ca2+ buffer (HPLC-MS). In kind it is physicochemical. The conditions noted are these: aqueous buffer, kinetic from dmso stock; TBS/Ca2+ buffer pH 7.4, 1 % DMSO, N≥3; read-out: Solubility S (kinetic). The method, then: Next, we quantified the solubility of at least one representative of each new class and of one parent bisacylhydrazone in aqueous media (Table 1). […]
TBS/Ca2+ buffer (20 mM Tris, 137 mM NaCl, 2.6 mM KCl at pH 7.4 supplemented with 1 mM […]
(§1) CaCl2) in presence of 25% DMSO. […]
Kinetic solubility was determined on the analytical HPLC-MS using Compass QuantAnalysis quantification software (Bruker). Samples were prepared from DMSO stock solutions by dilution with TBS/Ca2+ buffer to 100 µM with 1% DMSO present. Samples were incubated on a shaker for 1 h at r.t., centrifuged (21380 g, 20 min), supernatants were diluted with DMSO (1:3), analyzed by HPLC-MS and fitted to the individual calibration curves.
Every experiment was repeated independently at least three times. […]

Data set [2] deals with T1, LecA (Pseudomonas aeruginosa, UniProt Q05097).
T1 construct: made in house
The data set can be described thus: Competitive binding assay based on fluorescence polarization. The method, then: All synthesized galactosides were then evaluated for LecA inhibition using a competitive binding assay based on fluorescence polarization (Figure S1).[24]
Expression and purification of LecA as well as competitive binding by fluorescence polarization was performed as described by Joachim et al..[9] The assay was performed in TBS/Ca2+ buffer (20 mM Tris, 137 mM NaCl, 2.6 mM KCl at pH 7.4 supplemented with 1 mM CaCl2) in presence of 25% DMSO. Averages and standard deviations were calculated from at least three independent experiments. […]
RR OR In h i b i to r [µ M ]
R R In h i b i to r [µ M ] […]
R In h i b i to r [µ M ] 30 L2
30 F2 40 K2 In h i b i to r [µ M ] […]
In h i b i to r [µ M ] In h i b i to r [µ M ]
Figure S1: Evaluation of amide divalent LecA ligands in a competitive binding assay based on fluorescence […]
representative experiment is shown or each series. Averages and standard deviations from at least three independent titrations of triplicates each.
[…] Fluorescence polarization [mP] -1 0 1 2 3 0 1001010 Me-α-Gal pNO2-Ph-β-Gal 1000 Inhibitor [µM] Fluorescence polarization [mP])
In general terms: In fluorescence polarisation assays a small probe gives low polarisation when free and higher when bound to something large.

Data set [3] deals with T1, LecA. The experiment in a line: Direct binding to immobilized LecA by surface plasmon resonance (SPR). The conditions noted are these: for kon: SPR single-cycle kinetics, 25 °C, N=3 (I1 N=1); for Relative potency r.p. (SPR): compared to respective monovalent compound in each series. The method, then:
K d values were oscillating with the number of methylene units present in the linker, presumably linked to the zig‐zag geometry of the hydrocarbon chain.
Expression and purification of LecA as well as competitive binding by fluorescence polarization was performed as described by Joachim et al..[9] […]
Surface plasmon resonance experiments were performed on a BIACORE X100 instrument (GE Healthcare) at 25 °C as described by Zahorska et. al..[8] Averages and standard deviations were calculated from three independent experiments. […]
Figure S3: SPR of divalent LecA ligands from benzene series. Sensorgrams obtained from SPR single-cycle kinetics experiments. Five different concentrations of each compound (0, 10, 50, 100, 200 nM) were sequentially injected to obtain the experimental sensorgrams (blue lines), which were then fitted by a 1:1 model (orange) on BIACORE evaluation software. […]
Figure S4: SPR of divalent LecA ligands from pyridine and sulfonated series. Sensorgrams obtained from SPR single-cycle kinetics experiments. Five different concentrations of each compound (0, 10, 50, 100, 200 nM) were sequentially injected to obtain the experimental sensorgrams (blue lines), which were then fitted by a 1:1 model (orange) on BIACORE evaluation software.
(also on this page, place not known: Response (RU)0 Response (RU)0 Response (RU) Response (RU) Response (RU) Response (RU) 030060090012001500) […]
A general note: In SPR one partner is held on a chip, and binding of the other changes the refractive index at the surface.

Data set [4] deals with T1, LecA. The data set can be described thus: Isothermal titration microcalorimetry (ITC) with LecA. The class given is binding. As to conditions: for -TΔS (supplement) / ΔS: ITC average ± s.d.; for Relative potency r.p. (ITC): compared to respective monovalent compound in each series; for ΔG, individual titration / ΔH, individual titration: LecA 35-182 µM, ligand 100 µM-1.5 mM as headed.
From the text: Due to the high solubility of the propanamides in the pyridine series and the sulfonated ligand L2, we determined binding thermodynamics with LecA using isothermal titration microcalorimetry (ITC, Figure 3, Figures S5–S9). […] In both cases, the enthalpy of binding increased approximately twofold (I2: ΔH=−23.9±1.2 kcal mol^−1, L2: ΔH=−19.5±1.3 kcal mol^−1) compared to their monovalent analogues (G2: ΔH=−11.0±0.2 kcal mol^−1, K2: ΔH=−10.3±0.1 kcal mol^−1), while the binding entropy was increased approximately threefold (G2: −TΔS=3.8±0.2 kcal mol^−1 vs. I2: −TΔS=13.7±1.3 kcal mol^−1, K2: −TΔS=3.2±0.2 kcal mol^−1 vs. L2: −TΔS=9.4±1.3 kcal mol^−1).
Figure 3 Direct binding of selected ligands to LecA by ITC (N=3). Titration of LecA (50 μM) with divalent sulfonated ligand L2 (250 μM) is depicted. Relative potencies (r.p.) were calculated compared to respective monovalent compound in each series and […]. TEXT PRINTED IN THE PICTURE: G2: ΔG [kcal/mol]: -7.2 ± 0.1; ΔH [kcal/mol]: -11.0 ± 0.2; -TΔS [kcal/mol]: 3.8 ± 0.2; N: 1.07 ± 0.06; Kd [nM]: 5 270 ± 30; r.p.: 1 | I2: ΔG [kcal/mol]: -10.2 ± 0.2; ΔH [kcal/mol]: -23.9 ± 1.2; -TΔS [kcal/mol]: 13.7 ± 1.3; N: 0.43 ± 0.01; Kd [nM]: 35.1 ± 12.5; r.p.: 150 | J2: ΔG [kcal/mol]: -9.7 ± 0.2; ΔH [kcal/mol]: -13.5 ± 0.4; -TΔS [kcal/mol]: 3.8 ± 0.5; N: 0.61 ± 0.06; Kd [nM]: 79.5 ± 32.8; r.p.: 66 | K2: ΔG [kcal/mol]: -7.1 ± 0.1; ΔH [kcal/mol]: -10.3 ± 0.1; -TΔS [kcal/mol]: 3.2 ± 0.2; N: 1.08 ± 0.13; Kd [nM]: 6 230 ± 440; r.p.: 1 | L2: ΔG [kcal/mol]: -10.1 ± 0.1; ΔH [kcal/mol]: -19.5 ± 1.3; -TΔS [kcal/mol]: 9.4 ± 1.3; N: 0.52 ± 0.06; Kd [nM]: 39.9 ± 3.6; r.p.: 156 […]
Expression and purification of LecA as well as competitive binding by fluorescence polarization was performed as described by Joachim et al..[9] The assay was performed in TBS/Ca2+ buffer (20 mM Tris, 137 mM NaCl, 2.6 mM KCl at pH 7.4 supplemented with 1 mM […]
as §1
Isothermal titration calorimetry was performed on an iTC200 (Malvern Panalytical) and the data were analyzed using Microcal Origin software (Malvern Panalytical). LecA (50 - 180 […]
K2 and L2 and TBS/Ca2+ buffer supplemented with 5% DMSO for I2 and J2. Steep titration slopes achieved with the divalent ligands were the result of high amount of protein present and the high binding affinity of the ligand (high ‘value of c’).[10] However, LecA protein […]
low heat released upon binding. […]

Where [5] appears, read: ITC average, 25 °C, TBS/Ca2+ buffer (5% DMSO for I2 and J2), N=3.
Setting [6] is: Kd (ITC), ITC average, 25 °C, TBS/Ca2+ buffer (5% DMSO for I2 and J2), N=3.
Where [7] appears, read: Kd, individual titration, single ITC titrations, three per ligand.
[8] abbreviates: single ITC titrations, three per ligand.

In brackets after ≈: the same amount, converted by molar mass. Several values for one entry are separate records, joined by “and”; a condition that tells them apart may be missing. Equal values may be shown once.

T1 sequence (Q05097 whole entry): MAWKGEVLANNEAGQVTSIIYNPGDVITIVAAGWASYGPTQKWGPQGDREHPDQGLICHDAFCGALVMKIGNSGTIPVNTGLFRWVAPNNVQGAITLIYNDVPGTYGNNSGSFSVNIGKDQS

As for `O=C(CCc1ccc(O[C@@H]2O[C@H](CO)[C@H](O)[C@H](O)[C@H]2O)cc1)Nc1ccc(OCCCOc2ccc(NC(=O)CCc3ccc(O[C@@H]4O[C@H](CO)[C@H](O)[C@H](O)[C@H]4O)cc3)cn2)nc1` [Compound I2], the solubility (kinetic) at 1 h in data set [1] was 63.3 ± 4.2 µM (≈ 55.8 µg/mL). For the same compound, the IC50 on LecA [2] was found to be 3200 ± 1300 nM. Moreover, at LecA [3], the Kd is 30.8 ± 1.5 nM, the koff came to 0.00809 ± 0.00124 s⁻¹, the kon is 262 ± 28 x10^3/Ms and the “Relative potency r.p. (SPR)” value stood at 97. In addition, on LecA [4] (25 °C), the “-TΔS (supplement)” value was 13.7 ± 1.3 kcal/mol and the ΔS is -45.9 ± 4.5 cal/mol/K. At LecA [4] (ITC average, 25 °C, N=3), the “N (stoichiometry)” value came to 0.43 ± 0.01. On LecA [4] (setting [5]), the “-TΔS” value amounted to 13.7 ± 1.3 kcal/mol, the ΔG is given as -10.2 ± 0.2 kcal/mol and the ΔH is given as -23.9 ± 1.2 kcal/mol. At LecA [4] (setting [6]), this compound came in with a Kd of 35.1 ± 12.5 nM. On LecA [4] (setting [7]), the Kd was 48.3 nM and 38.8 nM and 18.3 nM. On LecA [4], the “Relative potency r.p. (ITC)” value was found to be 150. At LecA [4] (setting [8]), the “N, individual titration” value was 0.44 (2×) and 0.43; the “ΔS, individual titration” value was -51.6 cal/mol/K and -40.6 cal/mol/K and -45.6 cal/mol/K; the “ΔG, individual titration” value is -10.0 kcal/mol and -10.1 kcal/mol and -10.6 kcal/mol; the “ΔH, individual titration” value was -23.6 kcal/mol and -25.5 kcal/mol and -22.7 kcal/mol.

On to `O=C(CCc1ccc(O[C@@H]2O[C@H](CO)[C@H](O)[C@H](O)[C@H]2O)cc1)Nc1ccc(OCCCCOc2ccc(NC(=O)CCc3ccc(O[C@@H]4O[C@H](CO)[C@H](O)[C@H](O)[C@H]4O)cc3)cn2)nc1` [Compound J2], for which, in data set [1], the solubility (kinetic) at 1 h amounted to 13.7 ± 1.7 µM (≈ 12.3 µg/mL). In addition, the IC50 on LecA [2] amounted to 3400 ± 1300 nM. For the same compound, on LecA [3], binding was put at a Kd of 25.1 ± 1.9 nM, the koff came out at 0.0068 ± 0.00265 s⁻¹, the kon is reported as 267 ± 84 x10^3/Ms and the “Relative potency r.p. (SPR)” value is 118. In addition, on LecA [4] (25 °C), the “-TΔS (supplement)” value stood at 3.8 ± 0.5 kcal/mol and the ΔS was -12.6 ± 1.8 cal/mol/K. On LecA [4] (ITC average, 25 °C, N=3), the “N (stoichiometry)” value amounted to 0.61 ± 0.06. At LecA [4] (setting [5]), the “-TΔS” value is 3.8 ± 0.5 kcal/mol, the ΔG is reported as -9.7 ± 0.2 kcal/mol and the ΔH is -13.5 ± 0.4 kcal/mol. Further, the affinity at LecA [4] (setting [6]), expressed as Kd, was 79.5 ± 32.8 nM. For the same compound, the dissociation constant (Kd) at LecA [4] (setting [7]) is 59.9 nM and 52.9 nM and 126 nM. In addition, the “Relative potency r.p. (ITC)” value at LecA [4] amounted to 66. For the same compound, at LecA [4] (setting [8]), the “N, individual titration” value is 0.53 and 0.62 and 0.69; the “ΔS, individual titration” value is -10.1 cal/mol/K and -13.8 cal/mol/K and -14.0 cal/mol/K; the “ΔG, individual titration” value is -9.9 kcal/mol (2×) and -9.4 kcal/mol; the “ΔH, individual titration” value is -14.0 kcal/mol and -12.9 kcal/mol and -13.5 kcal/mol.
